For six compounds, ΔTm results are on record in ChEMBL document CHEMBL1145498, “A systematic interaction map of validated kinase inhibitors with Ser/Thr kinases” (Proc Natl Acad Sci U S A, 2007).

Assay [1] addresses cAMP-dependent protein kinase catalytic subunit alpha (Homo sapiens) (UniProt P17612).
For assay [2], the target named is STE20-like serine/threonine-protein kinase (Homo sapiens) (UniProt Q9H2G2).
For assay [3], the target named is Serine/threonine-protein kinase 25 (Homo sapiens) (UniProt O00506).
In assay [4] the target is Dual specificity mitogen-activated protein kinase kinase 2 (Homo sapiens, UniProt P36507).
Assay [5] addresses Dual specificity protein kinase CLK1 (Homo sapiens) (UniProt P49759).
In assay [6] the target is Serine/threonine-protein kinase VRK2 (Homo sapiens) (UniProt Q86Y07).
Assay [7] addresses Serine/threonine-protein kinase Nek6 (Homo sapiens) (UniProt Q9HC98).
Assay [8] concerns the target Serine/threonine-protein kinase OSR1 (Homo sapiens) (UniProt O95747).
The target of assay [9] is Serine/threonine-protein kinase 38 (Homo sapiens) (UniProt Q15208).
Assay [10] concerns the target T1, Serine/threonine-protein kinase 4 (Homo sapiens) (UniProt Q13043).
T1 sequence (whole entry): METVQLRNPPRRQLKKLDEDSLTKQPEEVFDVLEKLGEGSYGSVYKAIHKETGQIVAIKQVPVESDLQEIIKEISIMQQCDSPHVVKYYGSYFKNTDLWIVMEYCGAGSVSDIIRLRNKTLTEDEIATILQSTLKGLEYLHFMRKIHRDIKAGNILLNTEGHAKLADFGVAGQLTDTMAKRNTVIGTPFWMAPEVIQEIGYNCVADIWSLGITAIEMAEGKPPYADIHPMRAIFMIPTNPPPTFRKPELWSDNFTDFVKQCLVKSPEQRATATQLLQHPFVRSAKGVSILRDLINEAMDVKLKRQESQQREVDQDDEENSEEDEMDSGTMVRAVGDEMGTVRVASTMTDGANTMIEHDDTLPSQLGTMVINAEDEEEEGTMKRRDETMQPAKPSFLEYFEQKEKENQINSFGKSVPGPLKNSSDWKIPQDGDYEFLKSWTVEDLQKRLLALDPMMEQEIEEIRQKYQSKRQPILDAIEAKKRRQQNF

Assay [11] has as its target Death-associated protein kinase 3 (Homo sapiens) (UniProt O43293).
Assay [12] addresses Serine/threonine-protein kinase RIO2 (Homo sapiens) (UniProt Q9BVS4).
The target of assay [13] is Ribosomal protein S6 kinase alpha-3 (Homo sapiens) (UniProt P51812).
The target in assay [14] is Mitogen-activated protein kinase 3 (Homo sapiens, UniProt P27361).
Assay [15] has as its target T2, Lymphokine-activated killer T-cell-originated protein kinase (Homo sapiens) (UniProt Q96KB5).
T2 sequence (whole entry): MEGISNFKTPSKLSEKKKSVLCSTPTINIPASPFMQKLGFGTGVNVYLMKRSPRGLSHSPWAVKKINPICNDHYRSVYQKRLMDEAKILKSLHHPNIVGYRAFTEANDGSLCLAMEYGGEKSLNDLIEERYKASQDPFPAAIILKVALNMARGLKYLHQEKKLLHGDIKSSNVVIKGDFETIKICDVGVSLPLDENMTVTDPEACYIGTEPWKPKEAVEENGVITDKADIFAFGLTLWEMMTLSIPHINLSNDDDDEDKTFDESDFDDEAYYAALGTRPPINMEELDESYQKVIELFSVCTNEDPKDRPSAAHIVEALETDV

Assay [16] concerns the target Calcium/calmodulin-dependent protein kinase type 1G (Homo sapiens) (UniProt Q96NX5).
In assay [17] the target is Calcium/calmodulin-dependent protein kinase type 1D (Homo sapiens) (UniProt Q8IU85).
In assay [18] the target is T3, Serine/threonine-protein kinase Nek2 (Homo sapiens) (UniProt P51955).
T3 sequence (whole entry): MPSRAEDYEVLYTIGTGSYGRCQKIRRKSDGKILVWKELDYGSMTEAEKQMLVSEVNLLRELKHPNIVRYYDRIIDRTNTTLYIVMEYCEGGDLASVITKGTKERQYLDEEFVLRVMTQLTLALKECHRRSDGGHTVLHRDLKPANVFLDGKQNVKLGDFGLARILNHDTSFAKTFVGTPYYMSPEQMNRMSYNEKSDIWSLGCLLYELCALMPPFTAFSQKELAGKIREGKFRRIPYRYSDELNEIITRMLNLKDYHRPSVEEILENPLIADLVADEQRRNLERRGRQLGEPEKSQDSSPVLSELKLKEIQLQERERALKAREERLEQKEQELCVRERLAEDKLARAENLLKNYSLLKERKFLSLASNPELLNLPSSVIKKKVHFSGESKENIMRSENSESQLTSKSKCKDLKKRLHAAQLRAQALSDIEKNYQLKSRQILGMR

Assay [19] deals with Cyclin-dependent kinase 6 (Homo sapiens) (UniProt Q00534).
Assay [20] has as its target T4, 3-phosphoinositide-dependent protein kinase 1 (Homo sapiens) (UniProt O15530).
T4 sequence (whole entry): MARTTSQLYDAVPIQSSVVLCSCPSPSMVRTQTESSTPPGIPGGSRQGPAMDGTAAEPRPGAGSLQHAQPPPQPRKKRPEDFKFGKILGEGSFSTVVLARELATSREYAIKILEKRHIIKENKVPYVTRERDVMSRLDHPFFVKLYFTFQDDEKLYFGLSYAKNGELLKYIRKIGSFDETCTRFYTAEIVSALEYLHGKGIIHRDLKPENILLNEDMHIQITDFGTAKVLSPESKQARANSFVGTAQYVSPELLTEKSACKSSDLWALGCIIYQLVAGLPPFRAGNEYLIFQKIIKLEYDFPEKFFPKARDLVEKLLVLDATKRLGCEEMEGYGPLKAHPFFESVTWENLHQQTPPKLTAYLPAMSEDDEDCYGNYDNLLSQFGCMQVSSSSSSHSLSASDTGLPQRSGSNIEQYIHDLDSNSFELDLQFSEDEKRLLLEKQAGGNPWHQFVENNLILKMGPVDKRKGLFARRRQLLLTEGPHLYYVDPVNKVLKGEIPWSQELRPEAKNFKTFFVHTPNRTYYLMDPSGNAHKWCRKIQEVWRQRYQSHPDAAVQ

For assay [21], the target named is Serine/threonine-protein kinase 16 (Homo sapiens) (UniProt O75716).
Sequence of Serine/threonine-protein kinase 16 (Homo sapiens) (O75716 whole entry): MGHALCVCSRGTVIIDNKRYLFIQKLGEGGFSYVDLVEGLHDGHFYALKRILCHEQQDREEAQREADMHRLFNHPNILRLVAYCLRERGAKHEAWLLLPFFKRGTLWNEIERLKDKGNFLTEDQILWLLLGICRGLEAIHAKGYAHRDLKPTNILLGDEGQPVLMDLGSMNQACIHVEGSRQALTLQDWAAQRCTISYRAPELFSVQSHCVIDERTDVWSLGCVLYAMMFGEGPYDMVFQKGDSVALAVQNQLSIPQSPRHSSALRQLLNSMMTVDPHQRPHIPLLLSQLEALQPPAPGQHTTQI

Sequence of Cyclin-dependent kinase 6 (Homo sapiens) (Q00534 whole entry): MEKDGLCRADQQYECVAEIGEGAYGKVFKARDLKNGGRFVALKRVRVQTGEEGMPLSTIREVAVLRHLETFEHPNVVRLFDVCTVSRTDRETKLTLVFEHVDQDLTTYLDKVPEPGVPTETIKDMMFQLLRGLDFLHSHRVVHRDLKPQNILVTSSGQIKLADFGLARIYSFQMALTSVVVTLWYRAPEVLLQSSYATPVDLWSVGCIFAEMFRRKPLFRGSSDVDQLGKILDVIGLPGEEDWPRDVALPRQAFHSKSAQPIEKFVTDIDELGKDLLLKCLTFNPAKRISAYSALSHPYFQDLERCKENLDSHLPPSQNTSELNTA
Sequence of Calcium/calmodulin-dependent protein kinase type 1G (Homo sapiens) (Q96NX5 whole entry): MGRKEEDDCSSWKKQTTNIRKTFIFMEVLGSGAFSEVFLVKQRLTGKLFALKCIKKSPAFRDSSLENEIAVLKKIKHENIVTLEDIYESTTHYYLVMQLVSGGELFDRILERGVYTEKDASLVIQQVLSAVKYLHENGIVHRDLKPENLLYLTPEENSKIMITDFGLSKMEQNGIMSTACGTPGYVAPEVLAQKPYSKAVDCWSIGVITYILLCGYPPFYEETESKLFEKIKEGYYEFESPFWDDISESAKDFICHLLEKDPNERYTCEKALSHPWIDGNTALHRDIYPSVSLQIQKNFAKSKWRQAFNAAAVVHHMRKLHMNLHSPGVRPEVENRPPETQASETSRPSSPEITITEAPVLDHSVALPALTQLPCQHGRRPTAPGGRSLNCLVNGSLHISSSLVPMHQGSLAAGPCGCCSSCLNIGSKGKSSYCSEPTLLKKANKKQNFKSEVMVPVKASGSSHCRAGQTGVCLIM
Sequence of Serine/threonine-protein kinase VRK2 (Homo sapiens) (Q86Y07 whole entry): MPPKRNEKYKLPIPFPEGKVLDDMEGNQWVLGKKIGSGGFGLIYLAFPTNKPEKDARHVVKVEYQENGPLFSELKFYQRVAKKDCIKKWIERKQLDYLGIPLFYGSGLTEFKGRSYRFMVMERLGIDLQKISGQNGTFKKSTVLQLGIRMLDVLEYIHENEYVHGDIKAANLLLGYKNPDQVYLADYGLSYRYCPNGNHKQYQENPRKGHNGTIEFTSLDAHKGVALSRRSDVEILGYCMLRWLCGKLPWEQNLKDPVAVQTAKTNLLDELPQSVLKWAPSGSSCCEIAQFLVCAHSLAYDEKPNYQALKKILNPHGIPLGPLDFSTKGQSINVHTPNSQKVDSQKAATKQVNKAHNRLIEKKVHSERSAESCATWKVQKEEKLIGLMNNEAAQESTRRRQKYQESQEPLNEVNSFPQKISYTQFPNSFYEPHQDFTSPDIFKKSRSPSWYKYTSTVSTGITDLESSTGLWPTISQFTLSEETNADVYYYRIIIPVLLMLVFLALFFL
Sequence of Serine/threonine-protein kinase RIO2 (Homo sapiens) (Q9BVS4 whole entry, looked up): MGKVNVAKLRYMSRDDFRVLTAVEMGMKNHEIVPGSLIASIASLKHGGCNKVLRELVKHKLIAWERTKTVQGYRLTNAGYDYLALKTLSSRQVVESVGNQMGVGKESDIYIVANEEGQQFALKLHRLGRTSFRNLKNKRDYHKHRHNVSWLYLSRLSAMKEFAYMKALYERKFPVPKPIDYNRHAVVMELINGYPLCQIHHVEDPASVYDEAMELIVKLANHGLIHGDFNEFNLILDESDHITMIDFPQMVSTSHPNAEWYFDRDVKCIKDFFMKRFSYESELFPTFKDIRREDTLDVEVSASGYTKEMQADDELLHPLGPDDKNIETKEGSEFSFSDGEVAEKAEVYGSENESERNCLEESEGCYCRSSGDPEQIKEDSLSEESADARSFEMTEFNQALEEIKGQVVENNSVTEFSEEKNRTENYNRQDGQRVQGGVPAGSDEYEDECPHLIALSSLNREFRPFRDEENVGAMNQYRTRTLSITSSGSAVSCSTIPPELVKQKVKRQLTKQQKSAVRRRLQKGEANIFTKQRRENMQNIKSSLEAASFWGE
Sequence of Serine/threonine-protein kinase 25 (Homo sapiens) (O00506 whole entry, looked up): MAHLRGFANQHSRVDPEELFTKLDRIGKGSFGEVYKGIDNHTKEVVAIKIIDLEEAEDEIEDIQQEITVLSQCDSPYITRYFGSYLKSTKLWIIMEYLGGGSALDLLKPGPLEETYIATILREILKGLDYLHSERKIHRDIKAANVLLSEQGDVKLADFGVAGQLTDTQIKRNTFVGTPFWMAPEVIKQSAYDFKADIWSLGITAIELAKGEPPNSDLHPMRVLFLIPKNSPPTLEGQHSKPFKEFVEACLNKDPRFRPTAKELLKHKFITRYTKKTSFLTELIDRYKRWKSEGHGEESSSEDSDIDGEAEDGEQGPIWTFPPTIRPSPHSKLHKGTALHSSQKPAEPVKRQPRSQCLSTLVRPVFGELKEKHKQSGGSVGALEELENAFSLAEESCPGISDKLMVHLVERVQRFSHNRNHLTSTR
Sequence of Death-associated protein kinase 3 (Homo sapiens) (O43293 whole entry, looked up): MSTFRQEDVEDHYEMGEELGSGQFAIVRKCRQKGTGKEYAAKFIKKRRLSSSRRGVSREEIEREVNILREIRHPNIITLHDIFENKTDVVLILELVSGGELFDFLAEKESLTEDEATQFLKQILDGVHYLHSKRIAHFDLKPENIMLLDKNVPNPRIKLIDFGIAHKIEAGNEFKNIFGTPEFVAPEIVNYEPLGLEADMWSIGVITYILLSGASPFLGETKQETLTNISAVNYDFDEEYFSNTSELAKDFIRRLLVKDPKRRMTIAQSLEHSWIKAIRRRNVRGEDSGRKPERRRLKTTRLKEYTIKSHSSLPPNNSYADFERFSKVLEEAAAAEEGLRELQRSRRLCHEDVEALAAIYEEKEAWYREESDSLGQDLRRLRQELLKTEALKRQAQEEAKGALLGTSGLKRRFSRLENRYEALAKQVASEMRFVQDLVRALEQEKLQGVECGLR
Sequence of Serine/threonine-protein kinase 38 (Homo sapiens) (Q15208 2-465 limits assumed): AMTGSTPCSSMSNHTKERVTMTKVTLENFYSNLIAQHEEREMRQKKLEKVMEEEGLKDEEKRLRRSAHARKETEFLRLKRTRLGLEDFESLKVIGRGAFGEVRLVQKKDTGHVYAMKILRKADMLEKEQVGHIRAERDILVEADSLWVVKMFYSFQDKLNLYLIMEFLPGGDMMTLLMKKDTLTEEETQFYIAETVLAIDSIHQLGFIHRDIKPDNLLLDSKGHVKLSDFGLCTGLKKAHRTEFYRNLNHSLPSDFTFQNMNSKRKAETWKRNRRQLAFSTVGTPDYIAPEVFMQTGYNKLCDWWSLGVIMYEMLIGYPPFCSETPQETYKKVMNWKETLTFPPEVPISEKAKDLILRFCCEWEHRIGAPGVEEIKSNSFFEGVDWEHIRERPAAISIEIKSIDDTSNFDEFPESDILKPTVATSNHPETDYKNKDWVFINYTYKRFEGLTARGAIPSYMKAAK
Sequence of STE20-like serine/threonine-protein kinase (Homo sapiens) (Q9H2G2 whole entry, looked up): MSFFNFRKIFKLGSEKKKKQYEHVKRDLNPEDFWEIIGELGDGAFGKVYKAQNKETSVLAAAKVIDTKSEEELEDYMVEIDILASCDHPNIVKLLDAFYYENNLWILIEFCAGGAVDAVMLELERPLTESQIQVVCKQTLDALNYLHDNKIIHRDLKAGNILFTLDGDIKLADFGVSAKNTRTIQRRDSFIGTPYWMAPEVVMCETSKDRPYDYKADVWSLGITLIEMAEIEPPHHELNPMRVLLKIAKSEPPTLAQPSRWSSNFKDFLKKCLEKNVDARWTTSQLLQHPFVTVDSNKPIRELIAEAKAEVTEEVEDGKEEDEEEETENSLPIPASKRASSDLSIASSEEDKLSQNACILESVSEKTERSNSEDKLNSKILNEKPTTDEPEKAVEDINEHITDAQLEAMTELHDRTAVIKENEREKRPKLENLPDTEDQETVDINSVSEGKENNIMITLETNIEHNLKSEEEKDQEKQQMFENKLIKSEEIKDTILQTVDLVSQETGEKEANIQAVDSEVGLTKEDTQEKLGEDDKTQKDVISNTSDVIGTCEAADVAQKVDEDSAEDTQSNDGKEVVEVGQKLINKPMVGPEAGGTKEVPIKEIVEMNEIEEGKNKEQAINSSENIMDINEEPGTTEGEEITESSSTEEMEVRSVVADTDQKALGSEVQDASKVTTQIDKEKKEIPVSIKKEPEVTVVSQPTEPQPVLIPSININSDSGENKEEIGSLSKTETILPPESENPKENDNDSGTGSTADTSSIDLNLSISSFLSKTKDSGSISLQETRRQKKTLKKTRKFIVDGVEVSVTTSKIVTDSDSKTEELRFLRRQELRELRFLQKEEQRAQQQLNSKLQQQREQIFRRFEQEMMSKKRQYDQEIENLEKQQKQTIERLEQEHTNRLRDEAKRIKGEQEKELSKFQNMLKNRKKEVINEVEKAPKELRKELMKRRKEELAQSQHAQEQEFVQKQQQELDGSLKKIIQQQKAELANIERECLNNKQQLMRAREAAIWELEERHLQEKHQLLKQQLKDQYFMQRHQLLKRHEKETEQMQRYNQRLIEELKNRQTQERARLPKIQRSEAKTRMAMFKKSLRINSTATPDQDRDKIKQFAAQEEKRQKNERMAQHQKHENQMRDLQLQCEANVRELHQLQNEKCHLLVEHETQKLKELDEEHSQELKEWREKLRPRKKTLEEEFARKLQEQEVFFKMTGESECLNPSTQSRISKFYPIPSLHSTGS

For orientation: ΔTm means the change in melting temperature against a reference sample. Turning to `O=C1Nc2ccccc2/C1=C/c1cnc[nH]1`, the thermal shift (ΔTm) in assay [1] came to 1.6 °C; in [2], 3.3 °C; in assay [3], 6.3 °C; in assay [4] it was 2 °C; in assay [5], 3.3 °C; in assay [6], 2.1 °C. In addition, the ΔTm in assay [7] stood at 0 °C; in assay [8] it was 2.4 °C; in assay [9], 2.9 °C; in assay [10], 8.4 °C; in assay [11] it was 1.6 °C; in [12], 1.3 °C. Moreover, the thermal shift (ΔTm) was 5.8 °C in assay [13]; 2.1 °C in assay [14]; 0.1 °C in [15]; 1.2 °C in [16]; 0.7 °C in assay [17]; 2 °C in [18]. Moreover, the thermal shift (ΔTm) in assay [19] is 4.4 °C; in assay [20] it was 1.3 °C; in assay [21], 7.5 °C.
On to `O=c1cc(N2CCOCC2)oc2c1ccc1ccccc12`, for which the ΔTm in assay [1] was 0.2 °C; in [2], 0.2 °C; in assay [3] it was 0.6 °C; in assay [4], 0.1 °C; in [5], 0.8 °C; in [6], -0.1 °C. For the same compound, the ΔTm was -0.2 °C in [7]; 0.5 °C in assay [8]; 0.1 °C in assay [9]; 0.2 °C in assay [10]; 1.8 °C in [11]; 0.4 °C in assay [12]. The ΔTm in [13] amounted to 0.3 °C; in [14], 0.2 °C; in assay [15] it was 0.7 °C; in [16], 0.1 °C; in assay [17], 0 °C; in assay [18], 0.6 °C. Further, the ΔTm in assay [19] is 0.2 °C; in assay [20] it was 0 °C; in assay [21] it was 0.4 °C.
For the compound `Cn1cnc2c(NCc3ccccc3)nc(NCCO)nc21` [OLOMOUCINE], the thermal shift (ΔTm) is -0.1 °C in assay [1]; 0 °C in [2]; 0 °C in assay [3]; -0.4 °C in assay [4]; -0.2 °C in [5]; 0.2 °C in assay [6]. In addition, the ΔTm is 0 °C in assay [7]; 0.2 °C in assay [8]; 0 °C in assay [9]; 0.3 °C in assay [10]; -0.1 °C in assay [11]; 0.3 °C in assay [12]. Further, the shift in melting temperature (ΔTm) in assay [13] is 0.1 °C; in assay [14] it was 0.2 °C; in assay [15], 0.4 °C; in [16] it was 0 °C; in assay [17] it was -0.1 °C; in assay [18], 1.1 °C. Moreover, the thermal shift (ΔTm) in [19] is 0 °C; in assay [20] it was 0 °C; in assay [21], 0.7 °C.
`Cc1ccc(NC(=O)c2cccc(N(C)C)c2)cc1NC(=O)c1ccc(O)cc1`: the shift in melting temperature (ΔTm) in assay [1] was 0.9 °C; in [2], 0.9 °C; in [3], -0.3 °C; in assay [4], 0.4 °C; in [5], -0.2 °C; in assay [6], 0.2 °C. Further, the ΔTm in assay [7] is 0.3 °C; in [8], 2 °C; in [9] it was 0 °C; in assay [10], 0 °C; in assay [11], -0.4 °C; in [12] it was 0.2 °C. The shift in melting temperature (ΔTm) is 0.2 °C in [13]; 0.2 °C in [14]; 0.4 °C in [15]; 0.4 °C in assay [16]; 0.3 °C in assay [17]; 0.3 °C in [18]. The ΔTm was -0.4 °C in assay [19], -0.4 °C in [20] and 0.5 °C in assay [21].
As for `N#CCCc1ccc2c(c1)-c1[nH]c3ccc([N+](=O)[O-])cc3c1CC(=O)N2` [ALSTERPAULLONE 2], the shift in melting temperature (ΔTm) in [1] is 1.1 °C; in [2], 1.8 °C; in assay [3], 4.2 °C; in assay [4], 0.9 °C; in [5] it was 3.1 °C; in [6], 0.7 °C. Further, the thermal shift (ΔTm) in assay [7] was 0.8 °C; in assay [8] it was 0.8 °C; in [9], 3.3 °C; in [10], 5.9 °C; in [11], 1.7 °C; in assay [12], 1.2 °C. Further, the shift in melting temperature (ΔTm) was 4.1 °C in assay [13]; 2.2 °C in assay [14]; 0 °C in assay [15]; 1.6 °C in assay [16]; 0.6 °C in assay [17]; 2.2 °C in assay [18]. For the same compound, the thermal shift (ΔTm) was 3.2 °C in [19], -0.4 °C in [20] and 3 °C in assay [21].
Regarding `O=C1Nc2ccc(S(=O)(=O)O)cc2/C1=C1/Nc2ccccc2/C1=N\O`, the ΔTm in assay [1] came out at 1.2 °C; in assay [2] it was 1.1 °C; in assay [3] it was 2.2 °C; in [4] it was 4.9 °C; in assay [5], 3.9 °C; in assay [6] it was 4 °C. Also, the ΔTm in assay [7] was determined as 0.8 °C; in [8] it was 0.1 °C; in assay [9], 1.9 °C; in assay [10], 7.4 °C; in assay [11], 6.4 °C; in assay [12], 1.2 °C. Moreover, the ΔTm amounted to 5.6 °C in assay [13]; 2.4 °C in [14]; 0.4 °C in assay [15]; 2 °C in [16]; 0.7 °C in assay [17]; 3.5 °C in assay [18]. Moreover, the results for the thermal shift (ΔTm) in [19], in assay [20] and in assay [21] were 2.9 °C, 0.7 °C and 4.9 °C, respectively.
